# Activity calls are given as the source filed them.
# Columns and labels:
# [1] = target: T1, Nuclear receptor subfamily 0 group B member 1 (Homo sapiens, UniProt P51843); assay: Luminescence-based cell-based high throughput dose response assay for inhibitors of the orphan nuclear receptor subfamily 0, group B, member 1 (DAX1; NR0B1). [Related pubchem assays (depositor defined):AID504766, AID504790]; type: functional
# T1 sequence (P51843 whole entry): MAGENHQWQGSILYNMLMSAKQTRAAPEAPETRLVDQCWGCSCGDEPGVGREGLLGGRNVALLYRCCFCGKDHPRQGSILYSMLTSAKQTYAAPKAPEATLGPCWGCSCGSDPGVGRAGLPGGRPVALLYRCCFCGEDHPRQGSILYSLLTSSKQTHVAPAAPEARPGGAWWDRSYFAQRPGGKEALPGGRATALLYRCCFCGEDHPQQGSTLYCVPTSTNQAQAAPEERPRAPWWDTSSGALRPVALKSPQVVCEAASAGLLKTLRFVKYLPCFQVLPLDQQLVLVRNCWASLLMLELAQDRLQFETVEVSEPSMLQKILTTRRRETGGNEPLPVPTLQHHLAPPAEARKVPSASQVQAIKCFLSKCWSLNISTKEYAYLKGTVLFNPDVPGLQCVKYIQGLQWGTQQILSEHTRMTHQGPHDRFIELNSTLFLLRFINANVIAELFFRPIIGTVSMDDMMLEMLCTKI
# [2] = tested on: HEK293; assay: cells; type: functional, cell-based; details: Homo sapiens
# [3] = cytotoxicity toward DRD oncogenic fibroblasts, dose response, cell-based, non-viral oncogenic, luminescence (AID 1934); type: functional; details: Homo sapiens
# [4] = tested on: BJ; assay: cells; type: functional, cell-based; details: Homo sapiens
# [5] = tested on: BJ; assay: cytotoxicity toward BJ-TERT-LT-ST fibroblasts, dose response, cell-based, RAS-independent, luminescence (AID 1935); type: functional; details: Homo sapiens;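 note: BJ fibroblasts immortalized with TERT plus LT and ST oncogenes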
# [6] = tested on: BJ; assay: cytotoxicity toward Ras-transformed BJeLR fibroblasts, dose response, cell-based, alamar blue fluorescence, cherrypicked samples (AID 2631); type: functional; details: Homo sapiens;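 note: confirmatory dose-response assay in RAS-dependent BJ fibroblasts engineered with TERT, LT and ST, with cytotoxicity read by fluorescence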
# [7] = tested on: BJ; assay: cytotoxicity toward BJ-TERT fibroblasts, dose response, cell-based, RAS-independent, luminescence (AID 1933); type: functional; details: Homo sapiens
# [8] = human group III sPLA2 inhibitors, dose response, biochemical, QFRET, IC50 (AID 743457);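 note: green fluorescence rise as the enzyme cleaves BODIPY PC-A2 in liposomes; potency for inhibition of the enzyme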
# [9] = target: T2, Low molecular weight phosphotyrosine protein phosphatase (Homo sapiens, UniProt P24666); type: functional; details: read-out: IC50_Mean
# T2 sequence (P24666 whole entry): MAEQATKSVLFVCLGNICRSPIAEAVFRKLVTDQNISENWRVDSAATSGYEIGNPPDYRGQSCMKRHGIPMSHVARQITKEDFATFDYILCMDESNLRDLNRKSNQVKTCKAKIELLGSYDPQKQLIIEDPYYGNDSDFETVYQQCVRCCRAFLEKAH
# [10] = target: T2, Low molecular weight phosphotyrosine protein phosphatase; type: functional; details: read-out: IC50_Mean; remark: listed apart in the source
# [11] = CEM21 lymphoblast cell cytotoxicity, dose response, cytotoxicity control for viral fusion inhibitor project, CellTiter-Glo luminescence, cherry-picked (AID 652042); type: functional, cell-based;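 note: potency for signal decrease meaning cytotoxicity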
# [12] = inhibitors of clade B AD8 Env fusion, dose response, cell-based, cherry-pick (AID 652062); type: functional;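 note: luciferase signal from cell-cell fusion driven by HIV-1 clade B AD8 Env; potency is for inhibitors of fusion seen as a drop in luminescence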
# [13] = off-target signal loss in HeLa-CEM21 co-culture – HeLa F-luc CTL cells, cherry-picked, counter-screen for HIV-1 Env fusion inhibitor project, dose response (AID 652040); type: functional, cell-based;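 note: potency for signal decrease marking cytotoxic or nonspecific inhibition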
# [14] = ZM109 Env clade C HIV-1 fusion inhibitors, dose response, HeLa effector, CEM target cells, luciferase, cherry-pick (AID 652058); type: functional, cell-based
# [15] = inhibitors of HIV Env-driven cell fusion, dose response, cherry-pick (AID 652057); type: functional, cell-based
# [16] = HEp-2 cell cytotoxicity, dose response, cytotoxicity control for RSV inhibitor project, HTS (AID 2410); type: functional; details: human respiratory syncytial virus
# [17] = target: T3, Probable nicotinate-nucleotide adenylyltransferase (Staphylococcus aureus (strain N315), UniProt P65502); type: functional, Staphylococcus aureus subsp. aureus N315; details: read-out: IC50_Mean;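 for IC50 Mean: confirmatory dose-response retesting of NadD inhibitor hits first found in an ultra-high-throughput screen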
# [18] = target: T4, Fatty acid synthase (Homo sapiens, UniProt P49327); assay: FAS thioesterase domain inhibitors, dose response, biochemical, endpoint fluorescence intensity, uHTS hits (AID 624327); type: functional;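 note: fluorescence from hydrolysis of an O-methyl fluorescein acyl ester substrate by the enzyme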
# [19] = target: T3, Probable nicotinate-nucleotide adenylyltransferase; type: functional, Staphylococcus aureus subsp. aureus N315
# [20] = target: T4, Fatty acid synthase; assay: FAS thioesterase domain inhibitors, dose response, biochemical, kinetic fluorescence intensity (AID 624326); type: functional;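 note: rate of fluorescence rise from hydrolysis of a fluorogenic O-methyl fluorescein ester substrate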
# [21] = target: Ras and Rab interactor 1/Tyrosine-protein kinase ABL1 (Homo sapiens, UniProt P00519+Q13671); type: functional;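 note: biochemical TR-FRET dose-response test measuring inhibition of binding between Rin1 and Abl proteins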
# [22] = target: T5, Polyadenylate-binding protein 1 (Homo sapiens, UniProt P11940); assay: PABP1 MLLE–PAM2 binding inhibitor potency, dose response, biochemical, fluorescence polarization, FITC-PAM2 peptide (AID 602259); type: functional; details: read-out: IC50_Mean
# [23] = target: T5, Polyadenylate-binding protein 1; assay: PABP1 MLLE–PAM2 interaction inhibitors, dose response, miRNA deadenylation inhibitor project, biochemical, fluorescence polarization, Cy5-PAM2 peptide, secondary (AID 602260); type: functional; details: read-out: IC50_Mean
# [24] = target: Dual specificity protein phosphatase 3 (Homo sapiens, UniProt P51452); assay: VHR phosphatase inhibition, dose response, selectivity assay for STEP inhibitor project, biochemical (AID 602374); type: functional; details: read-out: IC50_Mean
# [25] = target: Tyrosine-protein phosphatase non-receptor type 11 (Homo sapiens, UniProt Q06124); assay: SHP2 phosphatase inhibition, dose response, selectivity assay for STEP inhibitor project, biochemical (AID 602367); type: functional; details: read-out: IC50_Mean
# [26] = target: Tyrosine-protein phosphatase non-receptor type 5 (Homo sapiens, UniProt P54829); assay: STEP phosphatase inhibitors, confirmation, biochemical, fluorescence intensity, uHTS hits (AID 602372); type: functional; details: read-out: IC50_Mean
# [27] = target: T6, Protein skinhead-1 (Caenorhabditis elegans, UniProt P34707); type: functional
# T6 sequence (P34707 whole entry): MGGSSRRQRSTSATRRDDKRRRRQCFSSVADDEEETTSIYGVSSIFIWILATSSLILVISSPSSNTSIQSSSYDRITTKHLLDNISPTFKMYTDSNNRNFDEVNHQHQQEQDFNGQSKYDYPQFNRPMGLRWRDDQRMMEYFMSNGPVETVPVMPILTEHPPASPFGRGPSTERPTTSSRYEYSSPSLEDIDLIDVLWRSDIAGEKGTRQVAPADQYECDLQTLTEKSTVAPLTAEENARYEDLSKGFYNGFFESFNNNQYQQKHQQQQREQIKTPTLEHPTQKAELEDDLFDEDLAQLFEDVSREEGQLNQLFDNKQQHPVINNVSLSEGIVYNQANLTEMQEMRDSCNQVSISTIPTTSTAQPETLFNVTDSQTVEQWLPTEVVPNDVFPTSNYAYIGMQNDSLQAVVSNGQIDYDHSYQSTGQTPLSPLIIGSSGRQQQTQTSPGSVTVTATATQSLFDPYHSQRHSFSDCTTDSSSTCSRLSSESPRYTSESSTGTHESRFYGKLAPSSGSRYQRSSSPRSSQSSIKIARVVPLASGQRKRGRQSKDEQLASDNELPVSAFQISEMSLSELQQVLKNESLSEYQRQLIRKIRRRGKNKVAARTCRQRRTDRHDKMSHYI
# [28] = target: T1, Nuclear receptor subfamily 0 group B member 1; type: functional, cell-based
# [29] = cells; type: functional, cell-based
# [30] = target: Genome polyprotein (dengue virus type 2, UniProt P29990); assay: Dengue-2 NS5 methyltransferase inhibitors, primary screen, biochemical, confirmation dose response (AID 588689); type: functional
# [31] = target: DNA (cytosine-5)-methyltransferase 1 (Homo sapiens, UniProt P26358); assay: DNMT1 methyltransferase inhibitors, confirmation, biochemical, fluorescent molecular beacon (AID 602386); type: functional
# [32] = THP-1 cell cytotoxicity, dose response, cytotoxicity control for Vif-APOBEC3G degradation inhibitor project, THP-1 cells (AID 1117359); type: functional; details: Human immunodeficiency virus 1, THP-1
# [33] = target: T7, Aurora kinase A (Homo sapiens, UniProt O14965); type: functional;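 note: value from the Navigating the Kinome kinase panel profiling, panel entry STK6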
# T7 sequence (O14965 whole entry): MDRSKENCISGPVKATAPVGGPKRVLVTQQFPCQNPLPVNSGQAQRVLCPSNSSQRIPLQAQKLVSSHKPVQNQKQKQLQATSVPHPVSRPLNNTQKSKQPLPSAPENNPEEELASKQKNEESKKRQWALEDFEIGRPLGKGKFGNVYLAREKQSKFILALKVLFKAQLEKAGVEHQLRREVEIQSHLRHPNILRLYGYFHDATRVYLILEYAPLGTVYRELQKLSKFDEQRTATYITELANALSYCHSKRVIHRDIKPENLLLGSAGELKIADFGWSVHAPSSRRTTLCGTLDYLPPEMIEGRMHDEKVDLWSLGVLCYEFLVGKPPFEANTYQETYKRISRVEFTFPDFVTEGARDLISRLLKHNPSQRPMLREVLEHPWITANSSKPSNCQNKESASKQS
# [34] = target: Vascular endothelial growth factor receptor 2 (Homo sapiens, UniProt P35968); type: functional
# [35] = target: Aurora kinase B (Homo sapiens, UniProt Q96GD4); type: functional
# [36] = tested on: H9c2; assay: cells; type: functional, cell-based; details: Rattus norvegicus, H9c2, Myocardium;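 note: confirmatory concentration-response retest of ultra-high-throughput screening hits for modulation of myocardial damage; cell death induced by hydrogen peroxide oxidative stress; compound pretreatment for 60 min then peroxide exposure for 2 h; potency is for protecting the cells against peroxide damage rather than for killing them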
# [37] = miR-122 activators in hepatoma reporter cells, dose response, cell-based, Huh7 psiCHECK-miR122, Renilla luciferase, cherry-picked (AID 651956); type: functional;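 note: huh7 hepatoma cells stably carrying a psiCHECK-2 miR-122 sensor plasmid; renilla luciferase signal reporting endogenous miR-122 activity after 48 h compound exposure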
# [38] = target: Protein disulfide-isomerase (Homo sapiens, UniProt P07237); assay: PDI inhibitors, insulin turbidity readout, confirmation, biochemical, dry powder samples, set 2 (AID 652146)
# T5 sequence (P11940 whole entry): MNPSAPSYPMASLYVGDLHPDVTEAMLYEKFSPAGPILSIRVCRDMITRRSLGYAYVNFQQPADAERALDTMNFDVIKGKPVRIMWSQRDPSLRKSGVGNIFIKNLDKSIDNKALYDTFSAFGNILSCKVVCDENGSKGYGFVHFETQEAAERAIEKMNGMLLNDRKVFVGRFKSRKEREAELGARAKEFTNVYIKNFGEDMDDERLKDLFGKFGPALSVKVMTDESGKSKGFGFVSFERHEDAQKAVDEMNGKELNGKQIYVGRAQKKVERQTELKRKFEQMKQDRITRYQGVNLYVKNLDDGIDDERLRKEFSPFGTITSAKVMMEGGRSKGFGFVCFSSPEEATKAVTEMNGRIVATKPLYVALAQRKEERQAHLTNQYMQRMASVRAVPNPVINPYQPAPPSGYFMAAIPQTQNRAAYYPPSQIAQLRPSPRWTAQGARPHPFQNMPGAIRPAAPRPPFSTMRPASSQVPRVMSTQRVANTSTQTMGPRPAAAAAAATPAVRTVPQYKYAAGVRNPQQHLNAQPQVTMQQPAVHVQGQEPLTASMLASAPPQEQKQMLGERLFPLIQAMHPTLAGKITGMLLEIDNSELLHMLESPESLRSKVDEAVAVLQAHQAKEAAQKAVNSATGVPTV
# T3 sequence (P65502 whole entry, the tested form may be a part): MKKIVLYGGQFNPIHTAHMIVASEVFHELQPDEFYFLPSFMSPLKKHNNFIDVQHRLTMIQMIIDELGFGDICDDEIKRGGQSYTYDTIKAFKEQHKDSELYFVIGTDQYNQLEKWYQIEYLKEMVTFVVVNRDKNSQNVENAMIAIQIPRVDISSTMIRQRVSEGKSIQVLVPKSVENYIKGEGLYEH
# Chain of Ras and Rab interactor 1/Tyrosine-protein kinase ABL1 (P00519 whole entry): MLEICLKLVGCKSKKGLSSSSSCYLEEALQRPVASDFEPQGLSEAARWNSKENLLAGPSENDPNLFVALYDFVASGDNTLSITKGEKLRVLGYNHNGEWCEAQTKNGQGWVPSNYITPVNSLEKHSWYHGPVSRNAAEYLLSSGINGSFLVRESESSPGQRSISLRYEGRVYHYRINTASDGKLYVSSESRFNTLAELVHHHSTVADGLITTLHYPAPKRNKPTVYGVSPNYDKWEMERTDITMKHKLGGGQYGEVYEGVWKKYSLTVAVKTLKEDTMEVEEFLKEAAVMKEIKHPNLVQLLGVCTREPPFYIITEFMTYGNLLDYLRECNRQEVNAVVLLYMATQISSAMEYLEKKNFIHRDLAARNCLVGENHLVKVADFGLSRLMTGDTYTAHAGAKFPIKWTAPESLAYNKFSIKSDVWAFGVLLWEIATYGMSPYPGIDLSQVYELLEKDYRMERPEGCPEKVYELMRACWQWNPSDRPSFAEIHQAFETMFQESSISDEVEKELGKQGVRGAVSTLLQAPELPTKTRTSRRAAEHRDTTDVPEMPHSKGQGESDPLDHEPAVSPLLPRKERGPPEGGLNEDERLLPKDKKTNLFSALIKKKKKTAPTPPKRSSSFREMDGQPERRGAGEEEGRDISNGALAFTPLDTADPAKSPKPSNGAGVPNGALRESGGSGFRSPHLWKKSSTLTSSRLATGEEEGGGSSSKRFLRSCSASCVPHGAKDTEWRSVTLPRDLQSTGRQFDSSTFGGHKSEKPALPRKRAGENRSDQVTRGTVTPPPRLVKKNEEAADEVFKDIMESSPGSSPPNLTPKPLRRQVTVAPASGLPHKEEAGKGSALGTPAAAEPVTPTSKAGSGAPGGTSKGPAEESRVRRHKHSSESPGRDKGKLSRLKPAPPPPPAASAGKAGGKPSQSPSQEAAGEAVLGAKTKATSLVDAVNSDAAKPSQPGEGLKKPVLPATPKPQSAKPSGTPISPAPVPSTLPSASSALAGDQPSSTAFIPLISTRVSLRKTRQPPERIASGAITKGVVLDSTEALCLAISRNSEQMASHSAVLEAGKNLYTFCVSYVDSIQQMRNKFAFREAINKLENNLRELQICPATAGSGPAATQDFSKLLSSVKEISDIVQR
# Chain of Ras and Rab interactor 1/Tyrosine-protein kinase ABL1 (Q13671 whole entry): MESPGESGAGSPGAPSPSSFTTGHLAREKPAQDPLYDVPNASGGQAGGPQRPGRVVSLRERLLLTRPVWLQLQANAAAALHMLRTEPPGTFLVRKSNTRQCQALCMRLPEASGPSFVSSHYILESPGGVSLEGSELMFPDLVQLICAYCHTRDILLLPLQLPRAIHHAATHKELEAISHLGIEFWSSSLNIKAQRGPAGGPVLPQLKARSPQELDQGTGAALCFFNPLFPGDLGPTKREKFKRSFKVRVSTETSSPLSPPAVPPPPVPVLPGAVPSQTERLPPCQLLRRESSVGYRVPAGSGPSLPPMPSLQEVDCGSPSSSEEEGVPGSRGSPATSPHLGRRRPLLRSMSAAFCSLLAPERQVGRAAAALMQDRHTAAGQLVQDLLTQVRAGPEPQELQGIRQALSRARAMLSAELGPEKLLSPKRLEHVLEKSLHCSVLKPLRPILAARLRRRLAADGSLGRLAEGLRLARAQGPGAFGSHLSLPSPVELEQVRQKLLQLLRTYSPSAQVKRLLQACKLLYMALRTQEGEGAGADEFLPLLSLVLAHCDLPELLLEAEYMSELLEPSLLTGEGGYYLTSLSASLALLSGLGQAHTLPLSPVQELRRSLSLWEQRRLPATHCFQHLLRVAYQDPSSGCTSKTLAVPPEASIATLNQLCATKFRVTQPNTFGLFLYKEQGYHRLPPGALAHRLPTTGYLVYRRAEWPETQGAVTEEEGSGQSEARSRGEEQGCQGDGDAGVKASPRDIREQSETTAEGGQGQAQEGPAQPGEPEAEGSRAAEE
# Chain of Vascular endothelial growth factor receptor 2 (P35968 whole entry): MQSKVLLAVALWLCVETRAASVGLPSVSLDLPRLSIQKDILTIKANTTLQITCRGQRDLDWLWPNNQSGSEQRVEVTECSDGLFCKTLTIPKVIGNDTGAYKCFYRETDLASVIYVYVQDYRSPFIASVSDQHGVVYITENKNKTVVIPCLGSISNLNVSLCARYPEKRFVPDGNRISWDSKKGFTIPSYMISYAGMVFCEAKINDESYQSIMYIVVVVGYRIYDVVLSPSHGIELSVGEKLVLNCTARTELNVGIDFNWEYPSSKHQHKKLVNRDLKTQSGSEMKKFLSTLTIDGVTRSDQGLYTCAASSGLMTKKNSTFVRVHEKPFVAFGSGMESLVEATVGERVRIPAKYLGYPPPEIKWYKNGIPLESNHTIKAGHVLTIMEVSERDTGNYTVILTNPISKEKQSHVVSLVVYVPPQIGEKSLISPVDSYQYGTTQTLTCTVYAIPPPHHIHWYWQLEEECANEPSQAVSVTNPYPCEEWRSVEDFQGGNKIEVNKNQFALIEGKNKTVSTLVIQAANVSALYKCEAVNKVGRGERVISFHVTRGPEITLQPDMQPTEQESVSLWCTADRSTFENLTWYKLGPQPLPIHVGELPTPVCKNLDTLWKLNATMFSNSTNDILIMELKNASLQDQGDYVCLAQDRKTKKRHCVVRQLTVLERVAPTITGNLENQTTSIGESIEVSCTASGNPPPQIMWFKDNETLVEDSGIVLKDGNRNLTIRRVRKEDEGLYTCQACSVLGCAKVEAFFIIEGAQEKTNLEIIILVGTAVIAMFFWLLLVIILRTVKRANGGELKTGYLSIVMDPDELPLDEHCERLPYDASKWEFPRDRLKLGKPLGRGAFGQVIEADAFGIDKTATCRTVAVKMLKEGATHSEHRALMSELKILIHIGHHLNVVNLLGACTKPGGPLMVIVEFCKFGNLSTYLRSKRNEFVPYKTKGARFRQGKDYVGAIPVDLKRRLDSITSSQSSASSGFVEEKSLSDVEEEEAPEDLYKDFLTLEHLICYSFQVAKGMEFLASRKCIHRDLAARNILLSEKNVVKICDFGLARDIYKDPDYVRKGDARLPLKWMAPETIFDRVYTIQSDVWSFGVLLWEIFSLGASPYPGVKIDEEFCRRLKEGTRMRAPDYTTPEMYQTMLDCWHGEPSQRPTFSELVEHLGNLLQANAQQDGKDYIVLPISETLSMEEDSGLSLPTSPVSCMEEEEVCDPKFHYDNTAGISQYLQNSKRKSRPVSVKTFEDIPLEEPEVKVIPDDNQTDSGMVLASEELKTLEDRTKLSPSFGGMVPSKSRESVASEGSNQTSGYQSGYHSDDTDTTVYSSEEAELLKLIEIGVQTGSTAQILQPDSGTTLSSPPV
# Chain of Genome polyprotein (P29990 2492-3391 limits assumed): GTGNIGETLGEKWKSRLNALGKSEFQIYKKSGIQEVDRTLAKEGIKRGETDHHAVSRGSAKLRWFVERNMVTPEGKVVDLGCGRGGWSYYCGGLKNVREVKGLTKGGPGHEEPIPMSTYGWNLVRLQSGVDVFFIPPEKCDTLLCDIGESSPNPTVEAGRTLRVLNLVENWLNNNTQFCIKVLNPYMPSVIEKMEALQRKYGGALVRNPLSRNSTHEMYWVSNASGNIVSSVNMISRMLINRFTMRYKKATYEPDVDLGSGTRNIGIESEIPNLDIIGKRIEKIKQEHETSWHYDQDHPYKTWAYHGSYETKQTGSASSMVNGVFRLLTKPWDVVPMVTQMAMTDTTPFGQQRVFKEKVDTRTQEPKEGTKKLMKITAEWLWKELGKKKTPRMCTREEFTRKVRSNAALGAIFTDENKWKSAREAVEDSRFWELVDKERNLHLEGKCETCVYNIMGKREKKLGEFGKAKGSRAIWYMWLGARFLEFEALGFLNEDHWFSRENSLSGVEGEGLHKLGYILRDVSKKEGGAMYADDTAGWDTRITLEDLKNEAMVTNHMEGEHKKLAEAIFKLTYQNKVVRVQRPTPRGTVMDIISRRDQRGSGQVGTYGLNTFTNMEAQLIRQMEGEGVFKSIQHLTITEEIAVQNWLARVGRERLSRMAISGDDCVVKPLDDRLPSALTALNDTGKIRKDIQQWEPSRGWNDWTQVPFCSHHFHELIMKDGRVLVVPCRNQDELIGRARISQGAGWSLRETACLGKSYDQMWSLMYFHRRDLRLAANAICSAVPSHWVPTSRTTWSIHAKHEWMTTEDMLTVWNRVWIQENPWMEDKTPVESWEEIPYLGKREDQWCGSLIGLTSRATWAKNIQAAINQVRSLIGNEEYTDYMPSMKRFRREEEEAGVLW
smiles,measurement,setting,value
O=C(NNc1nc2c(F)cccc2s1)c1ccccc1,IC50,[1],> 67.5 µM (inactive)
same,IC50,[2],> 67.5 µM (inactive)
CN1C/C(=C/c2ccncc2)C(=O)/C(=C/c2ccncc2)C1,EC50,[3],7.52 µM (active)
same,EC50,[4],3.65 µM (inconclusive)
same,EC50,[5],5.85 µM (inconclusive)
same,EC50,[6],0.455 µM (active)
same,EC50,[7],3.82 µM (active)
O=C(NN=C(S)NCc1ccccc1)c1ccccc1OC(F)F,IC50,[8],> 122 µM (inactive)
Cc1c(C(=O)OCC(=O)N2CC(=O)Nc3ccccc32)oc2ccc(Br)cc12,EC50,[3],15.6 µM (active)
same,EC50,[4],35.9 µM (active)
same,EC50,[5],> 150 µM (inconclusive)
same,EC50,[6],> 133 µM (inactive)
same,EC50,[7],10.1 µM (active)
O=C1NC(=O)N(CCc2ccc(F)cc2)C(=O)/C1=C\NCc1ccc2c(c1)OCO2,IC50,[9],3.2 µM (active)
same,IC50,[10],> 80 µM (inactive)
CCOC(=O)Cn1nnnc1CN(CCc1ccccc1)Cc1cc2cc(CC)ccc2nc1O,AC50,[11],54.2 µM (active)
same,AC50,[12],29.3 µM (active)
same,AC50,[13],6.05 µM (active)
same,AC50,[14],1.17 µM (active)
same,AC50,[15],2.97 µM (active)
O=[N+]([O-])c1ccc(Cl)c(S(=O)(=O)Nc2cccc(-c3ccc(N4CCCC4)nn3)c2)c1,CC50,[16],14.7 µM (active)
same,IC50,[17],23.5 µM (active)
same,IC50,[18],8.75 µM (active)
same,IC50,[19],6.57 µM (active)
same,IC50,[20],7.65 µM (active)
CCOC(=O)CCCCC(=O)c1[nH]c(O)nc1CSc1nc(O)c(C#N)c(-c2ccccc2)n1,IC50,[21],1.45 µM (active)
same,IC50,[22],> 66 µM (inactive)
same,IC50,[23],> 66 µM (inactive)
CCOC(=O)CCCCC(=O)c1[nH]c(O)nc1Cn1cnc2ccccc21,IC50,[21],1.86 µM (active)
COc1cccc(-c2cc(C(=O)Nc3nc4ccccc4s3)c3ccccc3n2)c1,IC50,[24],1.62 µM (active)
same,IC50,[25],8.43 µM (active)
same,IC50,[26],23.2 µM (inactive)
same,IC50,[27],> 100 µM (inactive)
COC(=O)C1CCC(=O)N1C(c1ccc(OC)cc1)c1cc(OC)c(OC)c(OC)c1 (stereo not given),IC50,[28],> 67.5 µM (inactive)
same,IC50,[29],> 67.5 µM (inactive)
O=C1C=C(N2CC2)c2ccccc2C1=O,IC50,[30],29.7 µM (active)
same,IC50,[31],1.87 µM (active)
same,IC50,[27],> 100 µM (inactive)
same,CC50,[32],32.7 µM (active)
O=C1Nc2ccccc2Nc2cc(-c3ccccc3O)ccc21,Ki,[33],> 2 µM (inactive)
same,Ki,[34],79.4 nM (active)
same,Ki,[35],> 2.51 µM (inactive)
Cc1[nH]c2ccccc2c1/C=N/NC(=O)c1cccs1,IC50,[36],> 79 µM (inactive)
same,IC50,[1],> 67.6 µM (inactive)
same,IC50,[2],> 67.6 µM (inactive)
CCNC(=O)C[C@@H]1CC[C@@H]2[C@@H](COc3ccc(NC(=O)C4CCCCC4)cc3C(=O)N2C)O1,AC50,[37],33.4 µM (active)
C[C@H](CO)N1C[C@H](C)[C@H](CN(C)S(=O)(=O)c2ccccc2)Oc2ccc(NC(=O)Nc3ccc4c(c3)OCO4)cc2CC1=O,AC50,[11],58.4 µM (active)
same,AC50,[12],1.15 µM (active)
same,AC50,[15],< 0.26 µM (active)
CCOC(=O)C1(CCOC)CCCN(Cc2ccc(Cl)cc2)C1 (stereo not given),AC50,[38],> 30 µM (inactive)

# Source: ChEMBL document CHEMBL1201862, “PubChem BioAssay data set” (2004)
